Data from patent US8163953B2, “Compounds for lysosomal modulation and methods of use” (University of Connecticut, priority 2008, dated 2012).
“Also recorded” adds a separate entry of the source. Where two headings read alike, the source gives them in different places. Peptide text beside a SMILES is read from it. * marks the point of attachment. Cbz = O=C(OCc1ccccc1)*; CHN2 = [N-]=[N+]=C*

How the values were obtained:
cathepsin = assay: Cathepsin enhancement and synaptic marker recovery in a protein accumulation model; type: cell-based
From the text: Increased lysosomal enzyme activities are an indicator of cellular responses aimed at compensating for accumulating material. Evidence of compensatory up-regulation of lysosomal enzymes in response to lysosome stress and protein accumulation has led to the identification of a pharmacological avenue for promoting such responses. This pharmacological avenue has been used to identify and synthesize the compounds described herein, which are effective as lysosomal modulators. The base structures of PADK and Z-Phe-Phe-diazomethylketone (PPDK) were used for the design of new lysosomal modulators because PADK and PPDK enhance cathepsin levels at 0.3-10 μM, resulting in 70-80% recovery of synaptic markers that were lost in a protein accumulation model. Other modulators, including diazoacetyl-DL-2-aminohexanoic acid methyl ester, require up to 30 μM to produce neuroprotective effects, but result in only 24-42% synaptic recovery.

cathepsin D = assay: Cathepsin D up-regulation in hippocampal slice cultures (immunoblot); type: cell-based; conditions: for EC50: increase of cathepsin D levels, slices treated daily for 3-6 days; for potency of increasing cathepsin D levels (in words) / EC2-fold (concentration needed for a 2-fold increase in cathepsin levels): hippocampal slice cultures; for potency of increasing cathepsin D levels (in words): treated daily 3-6 days
Method: The cultured slices were treated daily with different modulator concentrations for 3-6 days. […] BW1001 was not tested further due to its low potency.
The hippocampal slices were maintained in culture for 10-12 days to stabilize, then were treated daily with different modulator concentrations for 3 days. Then they were harvested rapidly in ice-cold buffer and homogenized in the presence of protease inhibitors.
Equal protein aliquots of the slice samples were subjected to immunoblotting to label the proform and the active form of cathepsin D (CD). FIG. 3A is an immunoblot showing PADK induced increases in the proform and active form of cathepsin D in hippocampal slice cultures. FIG. 3B is a graph showing the dose-dependent up-regulation of cathepsin D in hippocampal slice cultures by PADK and by BW1002.
Slices were treated daily for 3 days with 10 μM compound, then harvested rapidly for immunoblot assessment of active CD levels (ANOVA: P<0.0001). FIG. 5 is a bar graph showing the results of these tests. The data in FIG. 5 indicate that the non-peptide lysosomal modulators provide potent lysosomal modulation that enhances clearance of pathogenic accumulations. All data represent means±SEM.

[1] = tested on: hippocampal slice cultures; assay: LDH assay on media of treated slice cultures; conditions: for LDH release: media samples from treated slice cultures
Method: (§4) Potential toxicity was tested by assessing synaptic markers and subjecting media samples from the treated slice cultures to a standard LDH assay.

[2] = tested on: pre- and postsynaptic markers; assay: Synaptic marker assessment in treated slice cultures
Method: as §4

[3] = tested on: hippocampal slice cultures
Method: as §4

[4] = tested on: pre- and postsynaptic markers
Method: as §4

[5] = tested on: PDGF-APPSwInd transgenic mice; assay: Synaptic protection in PDGF-APPSwInd transgenic mice (GluR1); type: in vivo; conditions: daily i.p.; BW1005 45 mg/kg, BW1002 25 mg/kg
Method: Modulator BW1005, was administered daily i.p. into an Alzheimer's Disease model —PDGF-APPSwInd transgenic mice. The transgenic mice are hemizygotes for a mutant form of the human APP gene containing both the Swedish (K670N/M671L) and the Indiana (V717F) mutations (APPSwInd). […] Based on its potency in relation to PADK's effect in slices and mice, BW1005 was injected i.p. daily at a dose of 45 mg/kg.
The brains of the mice were dissected and assessed for the postsynaptic marker GluR1. […] FIG. 7 is a bar graph showing the mean GluR1 measure ±SEM for each group studied (post hoc test: p=0.05). […] Changes in cathepsin levels may explain the synaptic protection.

[6] = tested on: human paired helical filaments (PHFs); assay: Chloroquine-induced hippocampal slice model of protein accumulation, PHF immunostaining; type: cell-based; conditions: 6 days chloroquine, then 3 μM for 2 days
From the text: FIGS. 2A-C are immunostains of hippocampal slice cultures for human paired helical filaments (PHFs). The pathogenic PHF was undetectable in control tissue, FIG. 2A, whereas cellular accumulation of PHF was evident after 6 days of chloroquine treatment followed by 2 days of washout, FIG. 2B. […] Size bar: 16 μm.

[7] = Adverse-effect assessment of PADK dosing in 10 month old mice; type: in vivo
Method: (§1) The modulator PADK up-regulates cathepsins without causing adverse effects. Hippocampal homogenates were assessed for the mice. FIGS. 6A-D are graphs showing the effects of PADK doping on various biological and physical attributes of 10 month old mice.
(§2) FIG. 6D is a graph showing the results of motor skills and spatial memory tests. Motor skills and coordination were assessed using a variable-speed rotating rod and measuring the time the animal could remain moving on the rod. Spatial memory was tested with a conditions place preference (CPP) North-South paradigm in which the animal must remember where a previous reward was presented. Thus, the lysosomal modulation occurred in the absence of any evident effects on liver/kidney integrity, blood urea levels, or on normal brain functionality.

cathepsin B = assay: In vivo lysosomal modulation by PADK in mice
Method: The enhanced cathepsin staining was evident in many brain regions and co-localized with the lysosomal marker LAMP-1.
as §1, §2

cathepsins B and D = conditions: in vivo; cited from earlier work
APPswe/PS1ΔE9 mice = assay: Spontaneous alternation behavior in a T-maze, APPswe/PS1ΔE9 mice; type: in vivo
Method: (§3) The improvement of synaptic integrity by PADK was also associated with the reduction of behavioral deficits in the mouse models. FIG. 9C is a bar graph showing rotorod performance for several groups of mice. […] FIG. 9D is a bar graph illustrating spontaneous alternation behavior in the second type of Alzheimer's mouse model (APPswe/PS1ΔE9). APPswe/PS1ΔE9 mice treated with vehicle or PADK were tested on the hippocampal-dependent task of spontaneous alternation behavior in a T-maze. The mice were allowed to explore starting from the intersection of a T-maze, and were monitored for the order of entries into the three arms (arms A, B, and C). In control mice, every third explored arm is usually different than the previous two (e.g., A-B-C, B-A-C, etc.; the third decision being an alternation). Alzheimer's mice, on the other hand, frequently go back into one of the previous two arms explored (e.g., A-B-A, C-B-B), thus reducing the percent alternations. […] Open field mobility assessment confirmed no change in exploratory mobility across the different groups of mice.

[8] = tested on: APPSwInd and APPswe/PS1ΔE9 mice; assay: Synaptic markers in APPSwInd and APPswe/PS1ΔE9 mice treated with PADK; type: in vivo; conditions: two Alzheimer's mouse models, immunoblot of homogenates
Method: To compare the BW1002/1005 results to previous PADK work, homogenate samples were analyzed by immunoblot for the presynaptic protein synapsin II and postsynaptic glutamatergic marker GluR1.

APPSwInd mice = assay: Rotarod performance of APPSwInd mice; type: in vivo; conditions: trials on the 8th and 9th injection days
Method: as §3

## CCCCC(NC(=O)C=[N+]=[N-])C(=O)OC (racemic) [diazoacetyl-DL-2-aminohexanoic acid methyl ester]
cathepsin
  concentration required to produce neuroprotective effects: up to 30 μM

## O=C(NC(Cc1ccccc1)[C@H](O)CNCc1ccccc1)OCc1ccccc1 (stereo partly drawn) [BW1001, (2R,3S)-3-Cbz amino-2-hydroxy-4-phenyl-1-benzyl amino butane]
Cathepsin D
  EC50: 20 µM

## CC(=O)N(Cc1ccccc1)C[C@@H](O)C(Cc1ccccc1)NC(=O)OCc1ccccc1 (stereo partly drawn) [BW1002, (2R,3S)-3-Cbz amino-2-hydroxy-4-phenyl-1-(N-benzylacetamido) butane]
Cathepsin D
  EC50: 3 µM
[1]
  LDH release: did not cause synaptic decline or LDH release
[2]
  synaptic decline (pre- and postsynaptic markers): did not cause synaptic decline or LDH release

## [N-]=[N+]=CC(=O)N(Cc1ccccc1)C[C@@H](O)[C@H](Cc1ccccc1)NC(=O)OCc1ccccc1 [BW1003, (2R,3S)-3-Cbz amino-2-hydroxy-4-phenyl-1-(N-benzyl-2-diazo-ethanamido) butane]
Cathepsin D
  EC50: 2 µM
[1]; after 6 days of treatment
  LDH release as % of maximal LDH release produced by total cellular disruption (1% TX-100): < 2%
[1]
  LDH release: time-dependent increase in LDH activity
[2]
  synaptic decline (pre- and postsynaptic markers): caused evident synaptic decline

## CC(=O)N(Cc1cccc2ccccc12)C[C@@H](O)[C@H](Cc1ccccc1)NC(=O)OCc1ccccc1 [BW1004, (2R,3S)-3-Cbz amino-2-hydroxy-4-phenyl-1-(N-naphthylmethylethanamido) butane]
Cathepsin D
  potency of increasing cathepsin D levels (in words): potencies at or near that of PADK
  EC50: 20 µM
[3]
  LDH release: did not produce evident toxicity
[4]
  synaptic decline (pre- and postsynaptic markers): did not produce evident toxicity

## O=C(NC(Cc1ccccc1)[C@H](O)CN(Cc1ccccc1)C(=O)c1ccccc1)OCc1ccccc1 (stereo partly drawn) [BW1005, (2R,3S)-3-Cbz amino-2-hydroxy-4-phenyl-1-(N-benzylbenzamide) butane]
Cathepsin D
  potency of increasing cathepsin D levels (in words): potencies at or near that of PADK
  EC50: 15 µM
[5]
  synaptic protection: postsynaptic marker GluR1 in brain: significant synaptic protection; also recorded: greater than that provided by PADK
[1]
  LDH release: did not cause synaptic decline or LDH release
[2]
  synaptic decline (pre- and postsynaptic markers): did not cause synaptic decline or LDH release

## C[C@H](NC(=O)[C@H](Cc1ccccc1)NC(=O)OCc1ccccc1)C(=O)C=[N+]=[N-] [PADK, Z-Phe-Ala-diazomethylketone]
Cathepsin D
  EC2-fold (concentration needed for a 2-fold increase in cathepsin levels): 3.2 µM
Cathepsin D; unit μm [sic]
  EC50: 10 µM
Cathepsin D; slices treated daily for 3 days, immunoblot
  proform and active form of cathepsin D: increased
[1]
  LDH release: did not cause synaptic decline or LDH release
[6]
  clearance of chloroquine-induced PHF deposits in CA1 neurons: clearance of most neuronal deposits of PHF material
[7]
  ALT (damage to liver function): no change in either ALT or BUN
  BUN (kidney compromise): no change in either ALT or BUN
  adverse effects on synaptic markers GluR1 and synaptophysin: No adverse effects were evident
  motor skills and coordination (variable-speed rotating rod): did not impair motor skills, coordination, or spatial memory
  spatial memory (CPP North-South paradigm): did not impair motor skills, coordination, or spatial memory
Cathepsin B; 10-12-month old mice, 9 daily i.p. injections
  immunostaining for the active form of cathepsin B in hippocampal cells: dramatic increase in immunostaining
Cathepsin B; 10 month old mice, across different dosages
  cathepsin levels in hippocampal homogenates: dose-dependent increases in cathepsin levels
Cathepsins B and D
  rat brain levels of cathepsins B and D: significant increases
APPswe/PS1ΔE9 mice
  spontaneous alternations: significantly improved alternations
[2]
  synaptic decline (pre- and postsynaptic markers): did not cause synaptic decline or LDH release
[8]
  GluR1 deficit: significantly reduced the GluR1 deficit
APPSwInd mice
  Rotarod performance across trials: enabled the APPSwInd mice to improve across Rotarod trials

## [N-]=[N+]=CC(=O)[C@H](Cc1ccccc1)NC(=O)[C@H](Cc1ccccc1)NC(=O)OCc1ccccc1 [PPDK, Z-Phe-Phe-diazomethylketone] (Cbz-Phe-Phe-CHN2)
Cathepsin D
  EC2-fold (concentration needed for a 2-fold increase in cathepsin levels): ~5 µM
Cathepsin D; unit μm [sic]
  EC50: 14 µM
